Assays:
[1] = Elimination half life in Sprague-Dawley rat at 10 mg/kg, po administered as single dose measured upto 24 hrs by LC-MS/MS analysis; format: ADME, organism-based; conditions: in vivo, read-out: beta t1/2 (converted)
[2] = MRT (0 to t) in Sprague-Dawley rat at 10 mg/kg, iv administered as single dose measured upto 24 hrs by LC-MS/MS analysis; format: ADME, organism-based; conditions: in vivo
[3] = AUC (0 to infinity) in Sprague-Dawley rat at 10 mg/kg, iv administered as single dose measured upto 24 hrs by LC-MS/MS analysis; format: ADME, organism-based; set-up: dose 10 mg/kg, time < 24 hrs, route iv; conditions: in vivo
[4] = Volume of distribution at steady state in Sprague-Dawley rat at 10 mg/kg, iv administered as single dose measured upto 24 hrs by LC-MS/MS analysis; format: ADME, organism-based; conditions: in vivo, read-out: Vdss
[5] = Elimination half life in Beagle dog at 1 mg/kg, iv administered as single dose measured upto 24 hrs by LC-MS/MS analysis; format: ADME, organism-based, Canis lupus familiaris; conditions: in vivo, read-out: beta t1/2 (converted)
[6] = MRT (0 to t) in Beagle dog at 1 mg/kg, iv administered as single dose measured upto 24 hrs by LC-MS/MS analysis; format: ADME, organism-based, Canis lupus familiaris; conditions: in vivo
[7] = AUC (0 to t) in Beagle dog at 1 mg/kg, iv administered as single dose measured upto 24 hrs by LC-MS/MS analysis; format: ADME, organism-based, Canis lupus familiaris; set-up: dose 1 mg/kg, time < 24 hrs, route iv; conditions: in vivo
[8] = AUC (0 to infinity) in Beagle dog at 1 mg/kg, iv administered as single dose measured upto 24 hrs by LC-MS/MS analysis; format: ADME, organism-based, Canis lupus familiaris; set-up: time < 24 hrs, dose 1 mg/kg, route iv; conditions: in vivo
[9] = Clearance in Beagle dog at 1 mg/kg, iv administered as single dose measured upto 24 hrs by LC-MS/MS analysis; format: ADME, organism-based, Canis lupus familiaris; conditions: in vivo
[10] = Metabolic stability in rat hepatocyte assessed as parent compound remaining at 10 uM measured after 4 hrs by LC-MS/MS analysis; format: ADME, cell-based; conditions: hepatocytes, read-out: Stability
[11] = Metabolic stability in dog hepatocyte assessed as parent compound remaining at 10 uM measured after 4 hrs by LC-MS/MS analysis; format: ADME, cell-based, Canis lupus familiaris; conditions: hepatocytes, read-out: Stability
[12] = Metabolic stability in human hepatocyte assessed as parent compound remaining at 10 uM measured after 4 hrs by LC-MS/MS analysis; format: ADME, cell-based; conditions: hepatocytes, read-out: Stability
[13] = Drug metabolism in mouse hepatocytes assessed as glucuronidation metabolite at 10 uM measured upto 240 mins by LC-MS/MS analysis; format: ADME, cell-based, Hepatocyte; conditions: 4 h
[14] = Drug metabolism in rat hepatocytes assessed as glycine conjugation metabolite at 10 uM measured upto 240 mins by LC-MS/MS analysis; format: ADME, cell-based, Hepatocyte; conditions: 4 h
[15] = Drug metabolism in dog hepatocytes assessed as glycine conjugation metabolite at 10 uM measured upto 240 mins by LC-MS/MS analysis; format: ADME, cell-based, Canis lupus familiaris, Hepatocyte; conditions: 4 h
[16] = Drug metabolism in human hepatocytes assessed as oxidation/hydrogenation/decarboxylation metabolite at 10 uM measured upto 240 mins by LC-MS/MS analysis; format: ADME, cell-based, Hepatocyte; conditions: 4 h
Ketohexokinase = molecular target: T1, Ketohexokinase (Homo sapiens, UniProt P50053)
T1 sequence (P50053 whole entry): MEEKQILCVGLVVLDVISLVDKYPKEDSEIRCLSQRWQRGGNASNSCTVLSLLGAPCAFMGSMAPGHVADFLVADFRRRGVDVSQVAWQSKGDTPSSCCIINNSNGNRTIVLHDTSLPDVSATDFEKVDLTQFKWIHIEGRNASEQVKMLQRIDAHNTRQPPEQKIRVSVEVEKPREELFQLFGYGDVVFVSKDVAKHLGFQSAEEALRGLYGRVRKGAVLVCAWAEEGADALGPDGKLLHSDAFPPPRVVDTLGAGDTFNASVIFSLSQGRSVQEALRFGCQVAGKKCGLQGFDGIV

Cytochrome P450 1A2 = molecular target: T2, Cytochrome P450 1A2 (Homo sapiens, UniProt P05177)
T2 sequence (P05177 whole entry): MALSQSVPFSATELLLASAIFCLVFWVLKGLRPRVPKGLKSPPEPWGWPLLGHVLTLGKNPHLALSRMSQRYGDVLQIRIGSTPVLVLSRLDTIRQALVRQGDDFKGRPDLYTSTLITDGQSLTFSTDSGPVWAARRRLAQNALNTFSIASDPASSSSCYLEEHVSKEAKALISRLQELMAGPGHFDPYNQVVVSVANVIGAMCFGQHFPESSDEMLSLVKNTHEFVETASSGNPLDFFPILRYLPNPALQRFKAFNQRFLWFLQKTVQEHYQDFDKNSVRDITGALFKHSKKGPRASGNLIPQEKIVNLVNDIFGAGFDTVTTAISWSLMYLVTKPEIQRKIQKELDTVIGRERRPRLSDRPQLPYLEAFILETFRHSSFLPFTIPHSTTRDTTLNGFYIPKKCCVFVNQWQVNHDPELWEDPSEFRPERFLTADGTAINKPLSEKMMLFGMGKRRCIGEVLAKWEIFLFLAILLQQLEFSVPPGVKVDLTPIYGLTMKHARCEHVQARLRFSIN

Cytochrome P450 2C19 = Cytochrome P450 2C19 (Homo sapiens, UniProt P33261)
Cytochrome P450 2C9 = Cytochrome P450 2C9 (Homo sapiens, UniProt P11712)
[17] = molecular target: Sodium channel protein type 5 subunit alpha (Homo sapiens, UniProt Q14524)
in vivo [18] = conditions: Sprague-Dawley, rat, kidney, po, 10 mg/kg
in vivo [19] = conditions: Sprague-Dawley, rat, kidney/plasma, po, 10 mg/kg
in vitro [20] = conditions: rat, liver microsomes
in vitro [21] = conditions: dog, liver microsomes
in vitro [22] = conditions: human, liver microsomes
in vitro [23] = conditions: mouse, hepatocytes
in vitro [24] = conditions: rat, hepatocytes
PXR = molecular target: T3, PXR (Homo sapiens, UniProt O75469); test: in vitro
T3 sequence (O75469 whole entry): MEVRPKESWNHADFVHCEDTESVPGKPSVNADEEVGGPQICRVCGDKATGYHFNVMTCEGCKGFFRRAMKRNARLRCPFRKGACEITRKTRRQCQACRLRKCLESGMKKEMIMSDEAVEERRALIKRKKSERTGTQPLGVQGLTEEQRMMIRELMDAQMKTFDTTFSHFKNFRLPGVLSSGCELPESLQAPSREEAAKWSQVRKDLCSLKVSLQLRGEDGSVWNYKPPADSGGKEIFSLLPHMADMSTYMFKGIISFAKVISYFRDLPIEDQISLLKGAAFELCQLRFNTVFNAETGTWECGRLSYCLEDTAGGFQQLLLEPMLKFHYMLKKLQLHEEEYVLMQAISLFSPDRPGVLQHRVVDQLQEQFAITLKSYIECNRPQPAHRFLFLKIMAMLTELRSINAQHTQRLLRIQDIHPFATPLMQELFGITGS

Sequence of Sodium channel protein type 5 subunit alpha (Q14524 whole entry): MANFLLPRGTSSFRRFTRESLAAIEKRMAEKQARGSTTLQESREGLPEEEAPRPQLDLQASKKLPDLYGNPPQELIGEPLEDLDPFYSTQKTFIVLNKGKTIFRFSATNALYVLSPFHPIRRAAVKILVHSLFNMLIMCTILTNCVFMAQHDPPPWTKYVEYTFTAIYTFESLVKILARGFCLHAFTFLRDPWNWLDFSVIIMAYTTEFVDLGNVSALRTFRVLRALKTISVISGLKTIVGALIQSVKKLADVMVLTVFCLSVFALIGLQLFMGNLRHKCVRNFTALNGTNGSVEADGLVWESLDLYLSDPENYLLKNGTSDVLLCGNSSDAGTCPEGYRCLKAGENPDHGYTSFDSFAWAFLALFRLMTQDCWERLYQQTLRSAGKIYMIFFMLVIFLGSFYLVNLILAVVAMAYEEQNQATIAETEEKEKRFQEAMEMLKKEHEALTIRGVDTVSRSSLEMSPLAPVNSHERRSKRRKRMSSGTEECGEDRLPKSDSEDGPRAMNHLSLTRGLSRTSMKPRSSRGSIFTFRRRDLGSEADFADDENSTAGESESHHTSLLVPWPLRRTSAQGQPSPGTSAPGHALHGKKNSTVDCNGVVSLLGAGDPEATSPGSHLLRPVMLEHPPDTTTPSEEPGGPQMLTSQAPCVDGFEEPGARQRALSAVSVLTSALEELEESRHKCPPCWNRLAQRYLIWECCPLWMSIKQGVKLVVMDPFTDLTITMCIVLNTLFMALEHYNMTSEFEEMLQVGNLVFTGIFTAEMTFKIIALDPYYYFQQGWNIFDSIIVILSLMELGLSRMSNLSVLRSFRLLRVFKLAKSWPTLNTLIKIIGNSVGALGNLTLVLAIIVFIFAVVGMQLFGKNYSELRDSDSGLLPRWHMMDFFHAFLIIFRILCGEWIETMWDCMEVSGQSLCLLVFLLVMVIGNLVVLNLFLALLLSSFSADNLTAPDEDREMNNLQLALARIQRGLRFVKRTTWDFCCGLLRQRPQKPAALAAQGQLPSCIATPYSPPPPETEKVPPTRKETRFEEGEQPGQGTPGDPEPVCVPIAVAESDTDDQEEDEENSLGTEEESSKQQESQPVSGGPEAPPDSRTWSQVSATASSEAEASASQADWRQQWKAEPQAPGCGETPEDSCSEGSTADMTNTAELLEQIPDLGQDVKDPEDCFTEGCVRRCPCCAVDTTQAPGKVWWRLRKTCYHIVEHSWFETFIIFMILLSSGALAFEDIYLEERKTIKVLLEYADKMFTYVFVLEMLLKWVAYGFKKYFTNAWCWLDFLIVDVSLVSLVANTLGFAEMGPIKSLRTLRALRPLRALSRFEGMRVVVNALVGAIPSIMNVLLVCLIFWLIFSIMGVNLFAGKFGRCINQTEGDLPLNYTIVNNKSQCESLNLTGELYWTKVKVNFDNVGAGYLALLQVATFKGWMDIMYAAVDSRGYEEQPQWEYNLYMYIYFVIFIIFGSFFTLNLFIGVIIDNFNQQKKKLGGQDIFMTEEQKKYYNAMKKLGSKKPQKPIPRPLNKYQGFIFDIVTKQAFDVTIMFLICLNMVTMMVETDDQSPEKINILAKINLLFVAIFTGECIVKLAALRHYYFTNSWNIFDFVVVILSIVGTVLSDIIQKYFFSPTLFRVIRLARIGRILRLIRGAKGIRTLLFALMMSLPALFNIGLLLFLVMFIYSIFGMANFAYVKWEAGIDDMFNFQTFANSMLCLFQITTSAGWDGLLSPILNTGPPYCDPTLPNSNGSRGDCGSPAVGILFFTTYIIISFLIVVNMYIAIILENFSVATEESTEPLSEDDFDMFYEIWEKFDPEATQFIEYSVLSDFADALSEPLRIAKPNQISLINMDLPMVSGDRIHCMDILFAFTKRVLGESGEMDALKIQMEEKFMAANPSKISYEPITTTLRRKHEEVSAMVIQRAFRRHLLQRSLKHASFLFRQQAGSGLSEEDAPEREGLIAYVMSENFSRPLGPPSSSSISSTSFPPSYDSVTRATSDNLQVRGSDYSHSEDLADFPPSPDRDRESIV
Sequence of Cytochrome P450 2C19 (P33261 whole entry): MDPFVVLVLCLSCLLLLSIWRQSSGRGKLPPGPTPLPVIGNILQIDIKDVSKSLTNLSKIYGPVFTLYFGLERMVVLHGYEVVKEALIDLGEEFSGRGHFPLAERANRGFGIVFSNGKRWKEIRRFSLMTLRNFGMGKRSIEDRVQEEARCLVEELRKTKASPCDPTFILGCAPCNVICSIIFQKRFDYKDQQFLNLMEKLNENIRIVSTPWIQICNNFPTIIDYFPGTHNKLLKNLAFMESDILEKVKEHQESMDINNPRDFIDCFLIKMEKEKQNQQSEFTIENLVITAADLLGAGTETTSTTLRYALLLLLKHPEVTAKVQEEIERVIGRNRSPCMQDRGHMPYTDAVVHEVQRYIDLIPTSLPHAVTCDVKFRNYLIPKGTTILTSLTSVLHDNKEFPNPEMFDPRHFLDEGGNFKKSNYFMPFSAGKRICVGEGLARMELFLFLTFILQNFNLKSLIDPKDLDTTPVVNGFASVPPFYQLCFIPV
Sequence of Cytochrome P450 2C9 (P11712 whole entry): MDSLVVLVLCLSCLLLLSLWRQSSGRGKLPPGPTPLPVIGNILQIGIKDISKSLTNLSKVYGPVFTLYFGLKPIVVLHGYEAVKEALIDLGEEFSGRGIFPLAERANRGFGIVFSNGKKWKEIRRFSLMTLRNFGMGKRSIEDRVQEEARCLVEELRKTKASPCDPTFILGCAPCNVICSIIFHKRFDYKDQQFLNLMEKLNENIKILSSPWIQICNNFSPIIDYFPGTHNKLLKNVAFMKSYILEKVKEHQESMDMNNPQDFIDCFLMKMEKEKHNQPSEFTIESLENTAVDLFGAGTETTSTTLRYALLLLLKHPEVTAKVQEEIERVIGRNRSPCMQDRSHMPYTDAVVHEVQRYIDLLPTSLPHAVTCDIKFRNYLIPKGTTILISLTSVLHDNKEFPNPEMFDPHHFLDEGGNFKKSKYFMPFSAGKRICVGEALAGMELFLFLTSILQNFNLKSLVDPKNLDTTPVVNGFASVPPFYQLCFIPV

- half-life [1]: 7.16 h
- MRT last at 24 h [2]: 6.09 h
- AUC [3]: 76200 ng·h/mL
- Vd [4]: 0.89 L/kg
- half-life [5]: 5.1 h
- MRT last at 24 h [6]: 4.61 h
- AUCt [7]: 5440 ng·h/mL
- AUC [8]: 5580 ng·h/mL
- clearance [9]: 3.06 mL/min/kg
- remaining at 4 h, 10 µM [10]: 98.2%
- remaining at 4 h, 10 µM [11]: 97.8%
- remaining at 4 h, 10 µM [12]: 98.5%
- Drug metabolism [13]: Metabolite_Notdetected
- Drug metabolism [14]: Metabolite_Notdetected
- Drug metabolism [15]: Metabolite_Notdetected
- Drug metabolism [16]: Metabolite_Notdetected
- IC50 (Ketohexokinase): 0.0351 µM
- IC50 (Cytochrome P450 1A2): > 30 µM
- IC50 (Cytochrome P450 2C19): > 30 µM
- IC50 (Cytochrome P450 2C9): > 30 µM
- concentration at 24 h (in vivo [18]): 11000 ng/g
- Kp at 24 h (in vivo [19]): 2.2
- solubility kinetic (physchem): > 1000 µM
- microsomal CLint at 2 h, 1 µM (in vitro [20]): < 6.4 µL/min/mg
- microsomal CLint at 2 h, 1 µM (in vitro [21]): < 6.4 µL/min/mg
- microsomal CLint at 2 h, 1 µM (in vitro [22]): 6.4 µL/min/mg
- hepatocyte CLint at 2 h, 1 µM (in vitro [23]): < 0.96 µL/min/1e6 cells
- hepatocyte CLint at 2 h, 1 µM (in vitro [24]): < 0.96 µL/min/1e6 cells
- activity at 30 µM (PXR): 0.96%
Structure (SMILES): C[C@H]1CCN1c1nc(N2CC[C@H](CCC(=O)O)C2)c2c(n1)C(F)(F)CC2
- IC50 [17]: > 30 µM

— ChEMBL document CHEMBL5365534, “Discovery of a Novel Ketohexokinase Inhibitor with Improved Drug Distribution in Target Tissue for the Treatment of Fructose Metabolic Disease” (J Med Chem, 2023)
